Patent publication US20210247385A1, “METHODS FOR ASSESSING TRANSENDOTHELIAL BARRIER INTEGRITY” (Hoffmann-La Roche Inc., priority 2018, published 2021)
Values belong to the compound of their own block, whether it stands above or below them.

Key:
hPSC-ECs (GFP+ cells) = assay: Electric cell-substrate impedance sensing (ECIS) of transendothelial barrier integrity; assay type: cell-based, human; conditions: for effect on EC barrier in co-application with VEGFA (functional barrier assays): under both conditions, FIG. 5
Protocol: Electric cell-substrate impedance sensing. TBI was detected in real time using the ECIS® Z-theta system (Applied Biophysics, McAlister G C, Nusinow D P, Jedrychowski M P, Wuhr M, Huttlin E L, Erickson B K, et al. Analytical chemistry. 2014; 86(14):7150-8.) using 96 well array plates (96widf, Applied Biophysics) at 250 Hz frequency. Plates were coated with 100 μL of fibronectin (25 μg/mL; for 30 min at RT), fibronectin was replaced by complete media and electrodes were stabilized for 1 h on the system. Afterwards, media was removed and hPSC-ECs were seeded (10,000 cells per well). Cells were left for 2 days to reach full confluency and then treated with compounds with or without VEGFA (50 ng/mL). All the treatments were performed in triplicates.

TGFBR2 [1] = biological target: T1, TGFBR2 (Homo sapiens, UniProt P37173); assay: Kd determination (DiscoveRx) TGFBR2; assay type: binding; conditions: data not shown
T1 construct: purchased DiscoveRx
T1 sequence (P37173 23-567): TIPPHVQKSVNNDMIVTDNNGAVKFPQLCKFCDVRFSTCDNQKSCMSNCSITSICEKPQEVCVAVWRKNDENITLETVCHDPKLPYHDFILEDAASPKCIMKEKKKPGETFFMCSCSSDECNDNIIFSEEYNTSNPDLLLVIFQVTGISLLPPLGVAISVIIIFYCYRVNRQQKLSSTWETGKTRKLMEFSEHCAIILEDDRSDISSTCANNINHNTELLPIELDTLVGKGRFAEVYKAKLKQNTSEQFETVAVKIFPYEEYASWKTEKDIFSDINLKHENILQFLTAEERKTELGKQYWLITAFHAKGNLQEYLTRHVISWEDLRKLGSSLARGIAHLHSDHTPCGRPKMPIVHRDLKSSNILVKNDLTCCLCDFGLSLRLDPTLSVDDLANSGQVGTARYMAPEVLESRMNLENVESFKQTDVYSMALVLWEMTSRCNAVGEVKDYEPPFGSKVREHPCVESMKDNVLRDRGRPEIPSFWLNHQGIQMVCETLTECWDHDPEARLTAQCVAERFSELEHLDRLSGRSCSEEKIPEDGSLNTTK
Protocol: (§1) Competitive protein kinase binding assays. Kinome scan (468 kinases) was performed by scanMAX (DiscoveRx) at 1 μM. Kinome scan procedure has been followed as described in (Bemas M J, Cardoso F L, Daley S K, Weinand M E, Campos A R, Ferreira A J, et al. Nature protocols. 2010; 5(7):1265-72.). Kd determination for ACVR1B, TGFRB1, TGFBR2 and KDR has been done in duplicates with 11-point 3-fold serial dilution starting from 30 μM (DiscoveRx). All the compounds were dissolved in DMSO. Binding constants (Kds) were calculated with a standard dose-response curve using the Hill equation and the The Hill Slope was set to −1. Curves were fitted using a non-linear least square fit with the Levenberg-Marquardt algorithm.

TGFBR2 [2] = biological target: T1, TGFBR2; assay: Kinome scan (scanMAX, competitive protein kinase binding) TGFBR2; conditions: 1 μM; data not shown
Protocol: as §1

hPSC-EC = test system: hPSC-EC
Protocol: RNA isolation. RNA isolation from FACS sorted or cultured cells was performed using RNeasy micro kit or RNeasy mini kit (both Qiagen) or automated Maxwell Total RNA purification kit (Promega), all procedures included DNAse I digestion. Procedures were followed as described in the kit protocols.
RNA-sequencing and analysis. Total RNA from the FACS sorted or cell cultured treated samples was subjected to oligo (dT) capture and enrichment, and the resulting mRNA fraction was used to construct complementary DNA libraries. Transcriptome sequencing (RNA-seq) was performed on the Illumina HiSeq platform using the standard protocol (TruSeq Stranded Total RNA Library, Illumina) that generated approximately 30 million reads of 50 base-pair per sample. FACS sorted experiments for GFP+ and GFP− cells were performed using 6 replicates each from 2 different clones. The RNA-seq reads were then mapped to the human genome (NCBI build 37) by using GSNAP (Wu T D, Nacu S. Bioinformatics (Oxford, England). 2010; 26(7):873-81.). Comparison was done between 12 samples of GFP+ and GFP− samples from two clones. TGFBR2 inhibitor treated hPSC-EC samples were mapped to the human genome (hg19/Refseq) using STAR (Dobin A, Davis Calif., Schlesinger F, Drenkow J, Zaleski C, Jha S, et al. Bioinformatics (Oxford, England). 2013; 29(1):15-21.) and counting was performed using union mode of HtSeq (Anders S, Pyl P T, Huber W. Bioinformatics (Oxford, England). 2015; 31(2):166-9.). Differential expression was performed using Deseq2 (Dobin A, Davis C A, Schlesinger F, Drenkow J, Zaleski C, Jha S, et al. Bioinformatics (Oxford, England). 2013; 29(1):15-21.). Gene set enrichment analysis was performed using GSEA (Subramanian A, Tamayo P, Mootha V K, Mukherjee S, Ebert B L, Gillette M A, et al. Proceedings of the National Academy of Sciences of the United States of America. 2005; 102(43):15545-50.) using Hallmarks MsigDb database (Liberzon A, Birger C, Thorvaldsdottir H, Ghandi M, Mesirov J P, Tamayo P. Cell systems. 2015; 1(6):417-25.) using weighted p2 analysis, following default conditions with ignoring gene sets smaller than 15 and larger than 5000 genes.

BMPR1B = biological target: T2, BMPR1B (Homo sapiens, UniProt O00238); assay: Kinome scan (scanMAX, competitive protein kinase binding) BMPR1B; conditions: 1 μM; data not shown
T2 construct: purchased DiscoveRx
T2 sequence (O00238 14-502): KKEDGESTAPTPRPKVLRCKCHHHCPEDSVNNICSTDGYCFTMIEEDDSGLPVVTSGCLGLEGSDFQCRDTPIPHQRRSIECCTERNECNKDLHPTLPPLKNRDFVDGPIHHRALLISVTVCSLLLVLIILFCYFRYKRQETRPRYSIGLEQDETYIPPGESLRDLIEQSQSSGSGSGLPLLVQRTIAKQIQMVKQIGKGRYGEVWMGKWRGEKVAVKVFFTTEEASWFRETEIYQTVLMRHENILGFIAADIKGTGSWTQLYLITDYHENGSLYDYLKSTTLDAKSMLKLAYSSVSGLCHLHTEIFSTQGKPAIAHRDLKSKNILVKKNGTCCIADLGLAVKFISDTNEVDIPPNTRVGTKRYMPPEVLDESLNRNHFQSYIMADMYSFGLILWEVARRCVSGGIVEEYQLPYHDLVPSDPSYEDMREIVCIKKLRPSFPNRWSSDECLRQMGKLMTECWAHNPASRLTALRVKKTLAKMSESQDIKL
Protocol: as §1

[3] = test system: CLDN5 transcriptional reporter (CLDN5-P2A-GFP) in hPSC-EC; assay: CLDN5-GFP reporter, percentage of GFP+ cells by FACS; assay type: cell-based, human
Protocol: Fluorescence activated cell sorting and analysis. Human PSC-EC were dissociated from plates by Accutase (StemCell Technologies) and filtered before sorting with 30 μm filters (Miltenyi Biotec). Dissociated cells were kept in full media during sorting and sorted in cooled collection tubes with complete EC media supplemented with 20% FBS and 25 mM HEPES. Sorting was performed with BD FACS ARIA III (BD Biosciences) using 4-way purity precision mode. FACS plots were generated by Flowjo_V10 software. In case of RNA-seq minimum of 100,000 cells was sorted. After sorting, cells were spun down (610 g, 10 min) and lysed in 650 μL RLT lysis buffer (Qiagen)+β-mercaptoethanol (1%) and subsequently vortexed for 1 min at room temperature and snap frozen. In case of mass spectrometry analysis minimum of 10^6 cells was sorted, cells were washed with PBS^−(Life Technologies), spun down (110 g, 3 min), PBS was removed and cell pellets snap frozen.
Compound library screening with fluorescence activated cell readout. Compounds were plated in replicate plates, and each plate had DMSO treated controls. ECs (10,000 cells per well) were seeded on fibronectin coated plates in full media. Cells were treated 2 days after seeding and the FACS measurement using MACS quant analyzer 10 (Miltenyi biotec) was performed. Screen data was analyzed in Flowjo_V10 software.

[4] = RNA-seq 8 h and 48 h after treatment

Kd (inhibitory activities) for TGFBR2 (TGFBR2 [1]): nanomolar inhibitory activities
inhibitory activity on TGFBR2, large kinase panel (TGFBR2 [2]): strong inhibitory activity
expression of Wnt target genes (AXIN2, APCDD1, TNFRSF19) and receptors for Wnt FZD4 and LRP1 (hPSC-EC; [4]): upregulation
inhibition activity on BMPR1B, large kinase panel (BMPR1B): weaker inhibition activity
Structure (SMILES): Cc1cccc(-c2n[nH]cc2-c2ccc3ncccc3n2)n1 [Repsox, 2-[3-(6-Methyl-2-pyridinyl)-1H-pyrazol-4-yl]-1,5-naphthyridine]
rescue of TBI, impedance real time measurement (hPSC-ECs (GFP+ cells); 10 μM, co-treatment with 50 ng/mL VEGFA, GFP+ cells): rescues the loss-of TBI induced by VEGFA treatment
effect on EC barrier in co-application with VEGFA (functional barrier assays) (hPSC-ECs (GFP+ cells); VEGFA 50 ng/mL): strong EC barrier promoting effect
BMP signaling (ENG, LRG1 and BMPR2) (hPSC-EC; [4]): potently inhibited
CLDN5 expression (hPSC-EC; [4]): strong upregulation
GSK3ß expression (hPSC-EC; [4]): downregulation
PLVAP expression (hPSC-EC; [4]): downregulation
RHOB expression (hPSC-EC; [4]): Downregulation
SMAD6 (TGFß antagonist) expression (hPSC-EC; [4]): inducing
expression of KDR (VEGFR2) and PECAM1 (CD31) (hPSC-EC; [4]): did not change
expression of antagonists of BMP signaling (BMPER, GREM2 and GDF6) (hPSC-EC; [4]): Most striking upregulation
expression of inflammation genes (NFATC2, JAK1, JAK3 and ICAM1) (hPSC-EC; [4]): downregulate
expression of other tight junctions or regulators of tight junctions (MARVELD3, GJA4, GJA5, IFITM3) (hPSC-EC; [4]): Upregulation
TGFß pathway regulation (hPSC-EC; RNA-seq / GSEA Hallmarks MsigDB): most potent compound
expression of SOX17 and KLF4 (hPSC-EC; RNA-seq after treatment): Induction
VEGFR1 (FLT1) expression (hPSC-EC; RNA-seq, data not shown): upregulated
expression of angiogenesis related genes (ESM1, ANGPTL4 and PPARGC1A) (hPSC-EC; RNA-seq, data not shown): most potent compound in downregulating

Kd (inhibitory activities) for TGFBR2 (TGFBR2 [1]): nanomolar inhibitory activities
inhibitory activity on TGFBR2, large kinase panel (TGFBR2 [2]): strong inhibitory activity
inhibition activity on BMPR1B, large kinase panel (BMPR1B): weaker inhibition activity
Structure (SMILES): O=C(NC1CCOCC1)c1ccc(-c2cc(-c3c[nH]nc3-c3ccccn3)ccn2)cc1 [GW788388, 4-[4-[3-(2-Pyridinyl)-1H-pyrazol-4-yl]-2-pyridinyl]-N-(tetrahydro-2H-pyran-4-yl)-benzamide]
effect on EC barrier in co-application with VEGFA (functional barrier assays) (hPSC-ECs (GFP+ cells); VEGFA 50 ng/mL): prevented barrier disruption with VEGFA

Structure (SMILES): NC(=O)c1ccc(-c2nc(-c3ccc4c(c3)OCO4)c(-c3ccccn3)[nH]2)cc1 [SB431542, 4-(4-Benzo[1,3]dioxol-5-yl-5-pyridin-2-yl-1H-imidazol-2-yl)-benzamide]
effect on EC barrier in co-application with VEGFA (functional barrier assays) (hPSC-ECs (GFP+ cells); VEGFA 50 ng/mL): no effect

Structure (SMILES): Cc1cccc(-c2[nH]c(C(C)(C)C)nc2-c2ccc3c(c2)OCO3)n1 [SB505124]
effect on EC barrier in co-application with VEGFA (functional barrier assays) (hPSC-ECs (GFP+ cells); VEGFA 50 ng/mL): partial effect

Structure (SMILES): CCN(CC)CCNC(=O)c1c(C)[nH]c(/C=C2\C(=O)Nc3ccc(F)cc32)c1C [SU11248]
resistance to barrier breakdown by VEGFA, ECIS (hPSC-ECs (GFP+ cells); cells treated with 5 μM SU11248, VEGFA 50 ng/mL): resistant to barrier breakdown by VEGFA
% of GFP+ cells ([3]; 5 μM SU11248 for 2 days, FACS): 99%
change in GFP+ (reporter gene positive) cells upon treatment ([3]; FACS 2 days after treatment, VEGFA 50 ng/mL): increase of reporter gene positive cells
